Row | SMILES | melting point [°C]
1 | CON1CCC(C#N)(N(O)C(=O)Cc2cc(C)ccc2C)CC1 | 153 to 156
2 | CCOc1ccc(S(=O)(=O)Cl)cc1C(=O)OC | 99 to 100
3 | CCC(C(C)=CC(CNC(=O)Cc1cccnc1)=NO)[N+](=O)[O-] (configuration not stated) | 140 to 141
4 | O=C1CCC2=C1C(c1ccc3nonc3c1)C1=C(CCC1=O)N2 | 272 to 273
5 | O=C(NCCCc1ccncc1)N(CCC12CC3CC(CC(C3)C1)C2)CC(F)(F)F | 106 to 107
6 | COc1ccc(/C=C/C(=O)N2CCN(C(=O)c3cc(C(F)(F)F)cc(C(F)(F)F)c3)[C@H](Cc3ccc(C)c(C)c3)C2)cc1 | 67 to 76
7 | NC1=C(C(=O)c2ccc(Cl)cc2Cl)OC2N=C(O)C=CC12 (configuration not stated) | > 305
8 | O=C1C2CCCC2=Nc2ccccc2N1CCc1ccccc1 (configuration not stated) | 101 to 102
9 | COc1ccc(C=CC(=O)Oc2cc3c(cc2OC)CC2c4cc(OC)c(OC)cc4CCN2C3)cc1OC (configuration not stated) | 224 to 225
10 | COc1ccc(-c2nc3cc(Cl)c(Cl)cc3n2C(=O)OCc2ccccc2)cc1[N+](=O)[O-] | 212 to 214
11 | O=C(O)c1ccc2c(c1)OC(c1cc(F)cc(F)c1)(c1cc(F)cc(F)c1)O2 | 96
12 | COc1ccc(C=O)c(OCCO)c1 | 94
13 | CCN1CCC2(c3cccc(O)c3)CC(Cc3ccccc3)=CCC2C1 (configuration not stated) | 160 to 162
14 | Cn1cc(C(=O)NCc2ccc(Cl)cc2)c(=O)c2cc(Br)oc21 | 232 to 233
15 | Cc1ccc(C(=O)NCCC(=O)OCc2ccccc2)c(NC(=O)CCCCNC(=O)OC(C)(C)C)c1 | 112 to 113
16 | Cc1ccc(C(=O)c2ccncc2C(=O)O)cc1 | 230 to 231
17 | CC1(C)OC(C=Cc2ccc(F)cc2)=CC1=O | 55 to 57
18 | O=C(NC(CS)Cc1ccccc1)N1CCCCCC1 (single isomer, unassigned; (+)) | 102
19 | O=C(O)CCCc1cc2nc(Cl)ccc2n1S(=O)(=O)c1ccc2snnc2c1 | 227
20 | O=C1c2cc(Cl)ccc2-n2cncc2[C@@H]2CCCN12 | 216 to 217
21 | COC(=O)c1cccc2[nH]cc(CC[N+](=O)[O-])c12 | 103
22 | CC(C)c1ccc(-c2ccc(/C=C/C(=O)O)s2)cc1 | 216 to 219
23 | CSc1ccc(NC(=O)C2(C)CC2)cc1C(F)(F)F | 97 to 98
24 | CCOC(=O)C1CCC(c2ccc(OCC(=O)O)c(Cl)c2Cl)=CC1=O (configuration not stated) | 193 to 195

Row | SMILES | melting point [°C]
25 | COc1cc2nc(N)nc(-c3c(Br)cc(C)cc3Br)c2cc1OC | 235 to 237
26 | O=[N+]([O-])c1cccnc1Nc1ccc2c(c1)COC2 | 146 to 147
27 | CC(C)Oc1ccc(-n2c(-c3ccc(C(=O)O)cc3)c(C(=O)O)c3cc(Oc4cccc(Cl)c4)ccc32)cc1 | 211 to 217
28 | CCCOC1=Nc2c(ncn2-c2ccccc2)C2=N[C@@H](Cc3ccccc3)CN12 | 74 to 80
29 | CCCCCCCCCCCCCCCCSCC(CNS(=O)(=O)CCCCl)NC(C)=O (configuration not stated) | 86 to 88
30 | CCOC(=O)c1cc2cccc(NS(C)(=O)=O)c2[nH]1 | 157 to 158
31 | Cc1c(C(F)(F)F)noc1N | 53 to 54
32 | CC(C)(CO)NC(=O)c1nn(C2CCCCO2)cc1NC(=O)c1ccccn1 (configuration not stated) | 194 to 195
33 | O=c1[nH]c2scc(C3CC3)c2[nH]c1=O | > 250
34 | CCCOc1ccc(S(=O)(=O)N2CCN(CCC)CC2)cc1-c1nc2cc3ncn(Cc4ccccc4)c3cc2c(=O)[nH]1 | 194 to 195
35 | COc1ccc(-c2cccc(OC3SCC(O)C(O)C3O)c2)cn1 (configuration not stated) | 174
36 | COC(=O)CCC1CCC(=O)N1 (configuration not stated) | 52 to 53
37 | N#Cc1ccc(-c2ccc(OCCC(=O)NO)cc2)cc1 | 114 to 118
38 | N#Cc1cccc(OCc2ccccc2)c1N | 102 to 103
39 | C=CCc1ccc(C(NC(=O)OC(C)(C)C)C(=O)OC)cc1 (configuration not stated) | 60.6 to 62
40 | CCc1cc(-c2ccc(-c3ccn(C)n3)cc2)ccc1OC | 167 to 170
41 | COc1nc(OC)c(C=CC(C)=O)c(N(C)C)n1 | 116
42 | C=CC(c1ccccc1)c1cc(C)c2c(c1O)C(=NO)CC2 (configuration not stated) | 146
43 | CCOC(=O)c1c(Cn2cnnc2)nc2cc(OC)c(OC)cc2c1-c1ccc(OC)cc1 | 218 to 219
44 | COc1ccc(C2(C#Cc3ccc([N+](=O)[O-])cc3)CCC3(CC2)OCCO3)cc1OC1CCCC1 | 58 to 59
45 | Cc1cc2nc(C(=O)O)c(=O)[nH]c2cc1C | 276 to 285
46 | N#Cc1c(N2CCN(C(=O)c3cccs3)CC2)c2cc(Cl)cnc2n(Cc2ccccc2)c1=O | 221
47 | COc1c(C2CCN(CCCCNC(=O)c3oc(-c4ccc(C#N)cc4)nc3CO)CC2)ccc2c1CCCC2 | 160 to 162
48 | N#CCCc1oc(/C=C/c2ccccc2)nc1-c1ccccc1 | 117 to 118

Row | SMILES | melting point [°C]
49 | COC(=O)c1c(N)cc(Cl)c(Cl)c1Cl | 123 to 124
50 | Cc1c(CCC2CC(O)CC(=O)O2)c2c(c(C)c1OC(=O)c1ccccc1)CC(C)(C)O2 (configuration not stated) | 188 to 190
51 | O=C(NNc1ccc(Br)cc1)c1c(F)cccc1F | 172
52 | FC(F)c1nc2ccccc2n1-c1nc(Oc2ccccc2)nc(N2CCOCC2)n1 | 228 to 231
53 | COc1cc(C)nc(NC(=S)NS(=O)(=O)c2ccccc2Cl)n1 | 186 to 188
54 | COc1cc(-c2cnc3[nH]cc(C(=O)C(C)(C)C)c3n2)cc(OC)c1OC | 240 to 241
55 | COc1ccc(CN2CCSC2=O)cc1 | 84 to 86
56 | CC(C)(C)NS(=O)(=O)c1cncc(Br)c1 | 110
57 | Cn1nc(-c2cccnc2)nc1-c1cccnc1 | 148 to 149
58 | CSc1nc2nc(C)cc(-c3ccccc3)n2n1 | 121 to 123
59 | Nc1nc2ccccc2c2c1ncn2CCCCNC(=O)c1cccnc1 | 189 to 190
60 | O=C(N[C@H](Cc1ccc(C(F)(F)F)cc1)[C@@H](O)c1ccc(F)cc1)c1cccc(Cl)c1Cl (racemic) | 187 to 188
61 | CCCCCCCCCCCCc1nnn(CC(=O)OCC)n1 | 38 to 40
62 | COC(=O)c1nn(-c2cccnc2)cc1N | 102 to 108
63 | O=S(=O)(NCCc1ccccc1)c1cccc(-c2cc(-c3nc(-c4ccc(C(F)(F)F)cc4)cc(C(F)(F)F)n3)ccn2)c1 | 201
64 | COC(=O)c1ccc(NC(=O)N(C)C)cc1 | 169 to 170
65 | CC(=O)c1ccc(S(=O)(=O)Nc2ccccn2)cc1 | 198 to 199
66 | O=C(COc1ccc(-c2ccccc2)cc1)Nc1cscc1C(=O)O | 247 to 251
67 | Cc1cc(C(=CC(=O)c2ccc(Cl)cc2)C(F)(F)F)ccc1NC(=O)OC(C)(C)C | 72 to 74
68 | CCCc1nc(N)nc(N)c1N1CCN(c2ccc(C(=O)N[C@@H](CCC(=O)O)C(=O)O)cc2)CC1 | 280 to 284
69 | CSc1cccc(Oc2ncccc2C(=O)NCc2ccc(C(C)(C)O)cc2)c1 | 107 to 109
70 | O/N=C(\Sc1ccccc1)C(F)(F)F | 64 to 66
71 | Oc1ccc2c(c1)OC=C(CN1CCN(C(c3ccc(F)cc3)c3ccc(F)cc3)CC1)O2 | 190
72 | O=C(O)C1CCCCC1n1nc(-c2c(-c3ccccc3)nn3ccccc23)ccc1=O (configuration not stated) | 164

Source: a melting point compilation (Tetko et al.; mined from patent text by program, amines drawn as free bases though some values may be those of a salt)
